pEC50: −log10 of the molar value.
What was measured:
[1] = biological target: T1, GPR40 (Homo sapiens, UniProt O14842); experiment: Inositol phosphate accumulation assay (A9 cell line stably transfected with GPR40); assay type: cell-based; set-up: expressed in transfected cells; settings: human GPR40, A9_GPR40 cells, 1 hour at 37° C.; read-out: IP3 EC50 (inositol phosphate assay data)
Description: An A9 cell line stably transfected with GPR40 (A9_GPR40) was used in IP accumulation assays. A9_GPR40 cells were plated in 96-well plates containing 20,000 cells/well in DMEM containing 10% FBS. After the cells attached to the well surface, the media was replaced with inositol free DMEM containing 10% dialyzed FBS and 1 μCi, mL ^3H-inositol and incubated for 16 hours. Compounds were diluted in HBSS/10 mM LiCl containing a desired amount of HSA and added directly to cells. Following 1 hour incubation at 37° C., the media was replaced with 100 μl of 20 mM formic acid to quench the reaction. 50 μL of the extract was then added to 100 μL of SPA beads, incubated overnight, and measured on a TopCount the following day.

[2] = biological target: T1, GPR40; experiment: Cell-based aequorin assay (CHO cells stably transfected with GPR40 and aequorin); set-up: expressed in transfected cells; settings: activation of human GPR40, CHO cells, 0.01% HSA
Description: Briefly, the Aequorin assays were performed on doubly stable CHO cells expressing GPR40 and Aequorin DNA. […] The luminescence was recorded over a period of 20 seconds with a Microlumat luminometer (Berthold).
Cell-based aequorin assays were employed to characterize the modulatory activity of compounds on the GPR40 signaling pathway. In an exemplary assay, CHO cells were stably transfected with both GPR40 and Aequorin (Euroscreen). Cells were detached from the tissue culture dish with 2 mL of trypsin (0.25% (w/v)). Trypsinization was halted with 28 mL of Hanks Buffered Salt Solution containing 20 mM Hepes (H/HBSS) and 0.01% fatty acid-free human serum albumin (HSA). Coelantrazine is added to 1 ug/mL, and the cells were incubated for 2 hours at room temperature. Compounds were dissolved in DMSO for preparation of 10 mM stock solutions. Compounds were diluted in H/HBSS containing 0.01% HSA. Serial dilutions of the test compounds were prepared to determine dose response.
Aequorin luminescence measurements were made using an EG&G Berthold 96-well luminometer, and the response was measured over a 20 second interval after cells and compounds were mixed. The maximum relative light units was plotted to determine dose response. The EC50 (effective concentration to reach 50% maximal response) was determined from the dose response plot.

T1 sequence (O14842 whole entry): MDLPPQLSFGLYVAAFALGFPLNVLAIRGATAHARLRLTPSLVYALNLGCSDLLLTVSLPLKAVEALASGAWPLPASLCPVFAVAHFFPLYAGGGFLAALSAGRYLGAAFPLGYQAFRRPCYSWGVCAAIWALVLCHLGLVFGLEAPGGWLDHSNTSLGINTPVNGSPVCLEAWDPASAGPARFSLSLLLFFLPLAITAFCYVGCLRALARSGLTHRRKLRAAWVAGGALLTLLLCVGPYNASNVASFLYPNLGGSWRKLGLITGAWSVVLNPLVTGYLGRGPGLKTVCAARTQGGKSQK

| Compound | pEC50 [1] | pEC50 [2] |
| --- | --- | --- |
| COc1ccc(F)c(-c2ccc(COc3ccc4c(c3)[C@@H](CC(=O)O)CCC4)cc2C(C)(C)C)c1 (single isomer, unassigned) [Example 6, (R)-2-(7-(3-t-Butyl-4-(2-fluoro-5-methoxyphenyl)benzyloxy)1,2,3,4-tetrahydronaphthalen-1-yl)acetic acid or (S)-2-(7-(3-t-butyl-4-(2-fluoro-5-methoxyphenyl)benzyloxy)1,2,3,4-tetrahydronaphthalen-1-yl)acetic acid] | 6.00 to 7.00 | 6.00 to 7.00 |
| COc1ccc(F)c(-c2ccc(COc3ccc4c(c3)[C@@H](C(C)C(=O)O)CC4)cc2C(C)(C)C)c1 (single isomer, unassigned) [Example 7, (S)-2-(6-(3-t-Butyl-4-(2-fluoro-5-methoxyphenyl)benzyloxy)-2,3-dihydro-1H-inden-1-yl)propanoic acid or (R)-2-(6-(3-t-butyl-4-(2-fluoro-5-methoxyphenyl)benzyloxy)-2,3-dihydro-1H-inden-1-yl)propanoic acid] | 6.00 to 7.00 | 6.00 to 7.00 |
| CCCCOc1cc(COc2ccc3c(c2)[C@@H](CC(=O)O)CC3)ccc1-c1cc(OC)ccc1F (single isomer, unassigned) [Example 17, ((1R)-6-(((2-(butyloxy)-2′-fluoro-5′-(methyloxy)-1,1′-biphenyl-4-yl)methyl)oxy)-2,3-dihydro-1H-inden-1-yl)acetic acid or ((1S)-6-(((2-(butyloxy)-2′-fluoro-5′-(methyloxy)-1,1′-biphenyl-4-yl)methyl)oxy)-2,3-dihydro-1H-inden-1-yl)acetic acid] | 5.00 to 6.00 | 6.00 to 7.00 |
| COc1ccc(F)c(-c2ccc(COc3ccc4c(c3)[C@](C)(CC(=O)O)CC4)cc2[C@H]2CCCC2(C)C)c1 (single isomer, unassigned) [Example 18, {(S)-6-[2-((S)-2,2-Dimethyl-cyclopentyl)-2′-fluoro-5′-methoxy-biphenyl-4-ylmethoxy]-1-methyl-indan-1-yl}-acetic acid or diastereomer thereof] | 7.00 to 8.00 | 6.00 to 7.00 |
| COc1ccc(F)c(-c2ccc(COc3ccc4c(c3)[C@@](C)(CC(=O)O)CC4)cc2[C@@H]2CCCC2(C)C)c1 (single isomer, unassigned) [Example 19, {(R)-6-[2-((S)-2,2-Dimethyl-cyclopentyl)-2′-fluoro-5′-methoxy-biphenyl-4-ylmethoxy]-1-methyl-indan-1-yl}-acetic acid or diastereomer thereof] | > 8.00 | 6.00 to 7.00 |
| COc1cc(-c2ccc(COc3ccc4c(c3)[C@@](C)(CC(=O)O)CC4)cc2[C@@H]2CCCC2(C)C)c(F)cn1 (single isomer, unassigned) [Example 20, {(R)-6-[3-((S)-2,2-Dimethyl-cyclopentyl)-4-(5-fluoro-2-methoxy-pyridin-4-yl)-benzyloxy]-1-methyl-indan-1-yl}-acetic acid or diastereomer thereof] | > 8.00 | 6.00 to 7.00 |
| COc1ccc(F)c(-c2ccc(COc3ccc4c(c3)[C@@H](C(C)(C)C(=O)O)CC4)cc2[C@H]2CCCC2(C)C)c1 (single isomer, unassigned) [Example 21] | 7.00 to 8.00 | 6.00 to 7.00 |
| COc1ccc(F)c(-c2ccc(COc3ccc4c(c3)[C@@H](CC(=O)O)CC4)cc2[C@H]2CCCC2(C)C)c1 (single isomer, unassigned) [Example 22] | 7.00 to 8.00 | 6.00 to 7.00 |
| COc1cc(-c2ccc(COc3ccc4c(c3)[C@@H](CC(=O)O)CC4)cc2[C@H]2CCCC2(C)C)c(F)cn1 (single isomer, unassigned) [Example 23] | 7.00 to 8.00 | 6.00 to 7.00 |
| COc1ccc(F)c(-c2ccc(COc3ccc4c(c3)[C@@H](CC(=O)O)CC4)cc2[C@@H](OC)C(C)(C)C)c1 (single isomer, unassigned) [Example 24] | 7.00 to 8.00 | 6.00 to 7.00 |
| COc1ccc(F)c(-c2cc(F)c(COc3ccc4c(c3)[C@@](C)(CC(=O)O)CC4)cc2[C@H]2CCCC2(C)C)c1 (single isomer, unassigned) [Example 33, ((1R)-6-((2-((1S)-2,2-Dimethylcyclopentyl)-2′,5-difluoro-5′-methoxy-4-biphenylyl)methoxy)-1-methyl-2,3-dihydro-1H-inden-1-yl)acetic acid or ((1R)-6-((2-((1R)-2,2-dimethylcyclopentyl)-2′,5-difluoro-5′-methoxy-4-biphenylyl)methoxy)-1-methyl-2,3-dihydro-1H-inden-1-yl)acetic acid] | > 8.00 | 7.00 to 8.00 |
| COc1cc(-c2cc(F)c(COc3ccc4c(c3)[C@@](C)(CC(=O)O)CC4)cc2[C@H]2CCCC2(C)C)c(F)cn1 (single isomer, unassigned) [Example 34, ((1R)-6-((5-((1S)-2,2-Dimethylcyclopentyl)-2-fluoro-4-(5-fluoro-2-methoxy-4-pyridinyl)benzyl)oxy)-1-methyl-2,3-dihydro-1H-inden-1-yl)acetic acid or ((1R)-6-((5-((1R)-2,2-dimethylcyclopentyl)-2-fluoro-4-(5-fluoro-2-methoxy-4-pyridinyl)benzyl)oxy)-1-methyl-2,3-dihydro-1H-inden-1-yl)acetic acid] | > 8.00 | 6.00 to 7.00 |
| COc1ccc(F)c(-c2c(F)cc(COc3ccc4c(c3)[C@@](C)(CC(=O)O)CC4)cc2[C@H]2CCCC2(C)C)c1 (single isomer, unassigned) [Example 35, ((1R)-6-((2-((1S)-2,2-Dimethylcyclopentyl)-2′,6-difluoro-5′-methoxy-4-biphenylyl)methoxy)-1-methyl-2,3-dihydro-1H-inden-1-yl)acetic acid or ((1R)-6-((2-((1R)-2,2-dimethylcyclopentyl)-2′,6-difluoro-5′-methoxy-4-biphenylyl)methoxy)-1-methyl-2,3-dihydro-1H-inden-1-yl)acetic acid] | > 8.00 | 6.00 to 7.00 |
| COc1ccc(F)c(-c2ccc(COc3ccc4c(c3)[C@@](C)(CC(=O)O)CC4)cc2[C@@H](OC)C(C)(C)C)c1 (single isomer, unassigned) [Example 36, ((1R)-6-((2′-Fluoro-5′-methoxy-2-((1S)-1-methoxy-2,2-dimethylpropyl)-4-biphenylyl)methoxy)-1-methyl-2,3-dihydro-1H-inden-1-yl)acetic acid or ((1R)-6-((2′-fluoro-5′-methoxy-2-((1R)-1-methoxy-2,2-dimethylpropyl)-4-biphenylyl)methoxy)-1-methyl-2,3-dihydro-1H-inden-1-yl)acetic acid] | > 8.00 | 6.00 to 7.00 |
| COc1cc(-c2ccc(COc3ccc4c(c3)[C@@](C)(CC(=O)O)CC4)cc2[C@@H](OC)C(C)(C)C)c(F)cn1 (single isomer, unassigned) [Example 37, 2-((1R)-6-(4-(5-Fluoro-2-methoxypyridin-4-yl)-3-((S)-1-methoxy-2,2-dimethylpropyl)benzyloxy)-1-methyl-2,3-dihydro-1H-inden-1-yl)acetic acid or 2-((1R)-6-(4-(5-fluoro-2-methoxypyridin-4-yl)-3-(R)-1-methoxy-2,2-dimethylpropyl)benzyloxy)-1-methyl-2,3-dihydro-1H-inden-1-yl)acetic acid] | > 8.00 | 6.00 to 7.00 |
| COc1cc(-c2ccc(COc3ccc4c(c3F)[C@@](C)(CC(=O)O)CC4)cc2[C@H]2CCCC2(C)C)c(F)cn1 (single isomer, unassigned) [Example 38, {(R)-6-[3-((S)-2,2-Dimethyl-cyclopentyl)-4-(5-fluoro-2-methoxy-pyridin-4-yl)-benzyloxy]-7-fluoro-1-methyl-indan-1-yl}-acetic acid or stereoisomer thereof] | 7.00 to 8.00 | 6.00 to 7.00 |
| COc1cc(-c2ccc(COc3ccc4c(c3F)[C@@](C)(CC(=O)O)CC4)cc2[C@@H](OC)C(C)(C)C)c(F)cn1 (single isomer, unassigned) [Example 39, {(R)-7-Fluoro-6-[4-(5-fluoro-2-methoxy-pyridin-4-yl)-3-((S)-1-methoxy-2,2-dimethyl-propyl)-benzyloxy]-1-methyl-indan-1-yl}-acetic acid or stereoisomer thereof] | 7.00 to 8.00 | 6.00 to 7.00 |
| CC[C@]1(CC(=O)O)CCc2ccc(OCc3ccc(-c4cc(OC)ccc4F)c([C@H]4CCCC4(C)C)c3)cc21 (single isomer, unassigned) [Example 42] | 7.00 to 8.00 | 6.00 to 7.00 |
| COc1cc(-c2ccc(COc3ccc4c(c3F)C(C)(CC(=O)O)CC4)cc2C(OC)C(C)(C)C)c(F)cn1 [Example 41, {(S)-7-Fluoro-6-[4-(5-fluoro-2-methoxy-pyridin-4-yl)-3-((S)-1-methoxy-2,2-dimethyl-propyl)-benzyloxy]-1-methyl-indan-1-yl}-acetic acid or stereoisomer thereof] |  | 5.00 to 6.00 |

— patent US8450522B2, “Conformationally constrained carboxylic acid derivatives useful for treating metabolic disorders” (Amgen Inc., priority 2008, dated 2013)
